Data from patent publication US20140364422A1, “Aqueous Pharmaceutical Composition With Enhanced Stability” (NOVARTIS AG, priority 2012, published 2014).

How the values were obtained:
[1] = test system: late phase allergy symptoms; test: Efficacy of olopatadine aqueous ophthalmic solutions in reducing late phase allergy symptoms; type: in vivo
From the text: Olopatadine is a known compound that can be obtained by the methods disclosed in U.S. Pat. No. 5,116,863, the entire contents of which are hereby incorporated by reference in the present specification for all purposes. Olopatadine is an antihistamine (as well as anticholinergic) and mast cell stabilizer. Olopatadine is a selective histamine H1 antagonist. When included, the composition of the present invention contains at least 0.1%, more typically at least 0.33% or 0.55%, even more typically at least 0.65% or 0.67%, still more typically at least 0.7%, but typically no greater than 1.5% more typically no greater than 1.0%, still more typically no greater than 0.8%, possibly no greater than 0.75% and even possibly no greater than 0.72% or 0.6% of olopatadine where concentrations of olopatadine typically represent concentrations of olopatadine in free base form if the olopatadine is added to the composition as a salt. […] Advantageously, for the composition of the present invention, lower concentrations (e.g., at least 0.50 w/v %, at least 0.55 w/v %, or at least 0.60 w/v %) may show significant improvements and even possibly statistically significant improvements in reducing late phase allergy symptoms.

[2] = Solubility/clarity and freeze-thaw of 1.0% olopatadine in native guar with HPCD (Table 4-1); type: physicochemical; conditions: 0.17% native guar, approximately 5% or more HPCD, physiologic pH of approximately 7
Method: (§1) Various concentrations of HPCD were used in the formulations. The formulations were filled in glass scintillation vials and in LDPE Drop-Tainers. The formulations were evaluated for clarity using UV light.

[3] = Solubility/clarity and freeze-thaw of 0.5% and 1.0% olopatadine in native guar with HPCD (Table 5-1); type: physicochemical; conditions: physiologic pH of 7; for Olopatadine solubility: 0.17% native guar
Method: as §1
Formulation Compositions Containing 0.5% and 1.0% Olopatadine in 0.17% Native Guar and 1% to 6% Hydroxypropyl-Beta-Cyclodextrin (HPCD).

- Olopatadine concentration solubilized [2]: 1%
- Olopatadine solubility ([3]; HPCD at or above approximately 2%): 0.5%
- Olopatadine solubility ([3]; HPCD at or above approximately 4%): 1%
- concentration of cyclodextrin that can solubilize Olopatadine ([3]; 0.5% Olopatadine together with 0.17% guar): approximately 2%
- concentration of cyclodextrin that can solubilize Olopatadine ([3]; 0.6% Olopatadine together with 0.17% guar): ~4%
SMILES: CN(C)CC/C=C1/c2ccccc2COc2ccc(CC(=O)O)cc21 [Olopatadine, (Z)-11-(3-dimethylaminopropylidene)-6,11-dihydro-dibenz-[b,e]oxepin-2-acetic acid]
- olopatadine concentration at which efficacy in reducing late phase allergy symptoms begins to show improvement [1]: greater than 0.5 w/v %
- olopatadine concentration at which statistically significant improvements in reducing late phase allergy symptoms begin ([1]; about 0.7 w/v % and above): at least 0.7 w/v %
